# Source: US20120108607A1, “OPTICALLY ACTIVE 3-[(PHENYLPIPERAZIN-1-YL)ALKYL]-3- ALKYL-OXINDOLE DERIVATIVES HAVING CNS ACTIVITY” (priority 2009, published 2012)
# pKi: −log10 of the molar value. Where “and” joins values, the source holds several entries; their conditions need not be identical. Equal values may be shown once. Entries after “also recorded” stand apart in the source; their conditions may differ.
# What was measured:
# [1] = target: T1, cloned human D4 receptors (Homo sapiens, UniProt P21917); assay: receptor-binding assay, D4 (3H-YM-09151-2, SF9 cells); settings: for pKi: 3H-YM-09151-2 0.28 nM, SF9 cells
# T1 construct: expressed in transfected cells
# T1 sequence (P21917 1-419): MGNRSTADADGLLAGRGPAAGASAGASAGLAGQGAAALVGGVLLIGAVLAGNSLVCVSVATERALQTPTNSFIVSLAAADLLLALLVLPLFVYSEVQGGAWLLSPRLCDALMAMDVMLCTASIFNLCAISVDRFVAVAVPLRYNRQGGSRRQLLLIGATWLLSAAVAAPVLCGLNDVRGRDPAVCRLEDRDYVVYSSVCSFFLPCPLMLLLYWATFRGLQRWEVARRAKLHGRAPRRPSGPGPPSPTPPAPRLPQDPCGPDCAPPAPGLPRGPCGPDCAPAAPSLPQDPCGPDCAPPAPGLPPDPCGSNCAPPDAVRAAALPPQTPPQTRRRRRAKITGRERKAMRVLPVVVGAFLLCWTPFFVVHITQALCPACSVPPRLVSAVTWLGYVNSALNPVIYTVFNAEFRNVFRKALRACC
# Method: (§1) In the receptor-binding assays, brain tissues from male Wistar rats weighing 120-200 g or cloned human 5-HT6 or D4 receptors were used. The protein contents of the membrane preparates were determined according to Lowry (Lowry O. H., Rosenbrough N. J., Farr A. L., Randall R. J., Protein measurement with the Folin-Phenol reagents. J Biol Chem, 193: 265-275 (1951).
# (§2) The basic information with regard the receptor-binding assay is disclosed in Table 1. The binding assays were carried out according to the method of Leysen (Leysen J. E, Niemegeers C. J. E, Van Nueten J. M., Laduron P. M.: ^[3H]Ketanserin (R41468), a selective ^[3H]ligand for Serotonine2 receptor binding. Mol Pharmacol, 21: 301-314 (1981)). The tested compound was deemed to be effective in the case when the Ki value was smaller than 100 nM.
# male DBA mice = assay: Porsolt's test (antidepressant effect); assay type: in vivo, mouse; settings: for Porsolt-test (model for antidepressant effect), MED: ip., 30 minutes before the test, p<0.05
# Method: The antidepressant effect of the compounds of the Formula (I) has been established in Porsolt's test in male DBA mice weighing 20 to 25 grams. The swimming experiment was carried out in cylinders of 17.7 cm height and 12 cm diameter (Porsolt, R. D.: Behavioral despair. In: Enna, S. J., Malick, J. B., and Richelson, E. (eds.): “Antidepressants: Neurochemical, Behavioral, and Clinical Prespectives.” New York: Raven Press, 1981. pp. 121-139). In each experiment, four cylinders were used simultaneously. The animals were treated 30 minutes before the test with the test substances or with the vehicle in the dose of 1-3-10 mg/kg i.p. Animals were allowed to stay in the cylinder for six minutes. In the first two minutes, no measurement was made since this period was considered as the adaptation period. In the following four minutes (minutes 3 to 6 of the experiment) the time spent in immobile state was determined. The immobile time was registered for each animal with a precision of one second. The average was calculated for each group and the percentage effect was calculated for each treated group with reference for the control group. The statistical significance of the differences between groups was analyzed by […].
# On the basis of the statistical significance determined for the difference of each dose from the control, MED (minimum effective dose) values were calculated. […] A significant decrease of time spent in immobility was interpreted as an antidepressant effect.
# 5-HT2A receptors = target: T2, 5-HT2A receptors (Rattus norvegicus, UniProt P14842); assay: receptor-binding assay, 5-HT2A (3H-ketanserine, frontal cortex); settings: for pKi: 3H-ketanserine 1.0 nM, frontal cortex
# T2 construct: brain tissues from male Wistar rats weighing 120-200 g; from tissue
# T2 sequence (P14842 whole entry): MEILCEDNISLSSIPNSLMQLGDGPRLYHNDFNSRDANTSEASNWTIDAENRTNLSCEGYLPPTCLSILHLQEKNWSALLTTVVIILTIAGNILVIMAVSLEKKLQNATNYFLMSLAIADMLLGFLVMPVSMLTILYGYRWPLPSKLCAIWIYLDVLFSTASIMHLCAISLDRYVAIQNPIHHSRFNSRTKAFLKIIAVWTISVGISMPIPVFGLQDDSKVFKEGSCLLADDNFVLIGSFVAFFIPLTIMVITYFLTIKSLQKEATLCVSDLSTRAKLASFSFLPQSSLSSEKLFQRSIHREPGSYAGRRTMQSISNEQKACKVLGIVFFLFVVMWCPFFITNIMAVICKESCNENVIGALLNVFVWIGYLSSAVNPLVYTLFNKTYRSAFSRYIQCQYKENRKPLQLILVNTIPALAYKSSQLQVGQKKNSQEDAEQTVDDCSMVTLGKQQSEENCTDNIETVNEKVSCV
# Description: In the receptor-binding assays, brain tissues from male Wistar rats weighing 120-200 g or cloned human 5-HT6 or D4 receptors were used.
# The basic information with regard the receptor-binding assay is disclosed in Table 1.
# male Wistar rats = assay: Vogel's drinking conflict model (anxiolytic effect); assay type: in vivo, rat; settings: ip., 30 minutes before the test, MED = minimum dose resulting in statistically significant effect
# Method: Vogel's drinking conflict model was used for establishing the anxiolytic effect (Vogel at el., Psychopharmacologia, 21, 1, 1971). Male Wistar rats weighing 200 to 220 grams were restrained from drinking for 48 hours and deprived from feed for 24 hours prior to the experiment. The test substances or the vehicle were administered to the animals in a dose of 5.0-10.0-20.0 mg/kg intraperitoneally 30 minutes before the test. The test chamber was provided with a drinking tube which allowed the animals to drink. However, after each twentieth licking, the apparatus delivered a 0.7 mA electric shock to the animal. During the five-minute measurement period, the number of electric shocks was registered which the animals tolerated to appease their thirst. The effect of the test substance was expressed in the percentage increase in the number of tolerated electric shocks. The minimum effective dose (MED) was determined for each compound.
# male NMRI mice = assay: permanent focal cerebral ischemia model (neuroprotective effect); assay type: in vivo, mouse; settings: ip., 30 minutes after surgery
# Method: The neuroprotective effect of the compounds of the Formula (I) was tested in the permanent focal cerebral ischemia model according to the modified method of Karkoutly and coworkers (Karkoutly, C., Backhauss, C., Nuglisch, J., Krieglstein, J.: The measurement of the infarcted area after middle cerebral artery occlusion in the mouse: a screening model. In Krieglstein, J., Oberpichler, H. ed. Pharmacology of Cerebral Ischemia 1990. Wissenschaftliche Verlagsgesellschaft mbH Stuttgart. 63-69 (1990).).
# Male NMRI mice weighing 30 to 35 grams were anesthetized with 2,2,2-tribromoethanol administered intraperitoneally in the dose of 500 mg/kg (20 ml/kg). During anesthesia, surgery was performed according to the surgical protocol of Welsh and coworkers (Welsh, F. A., Sakamoto, T., McKee, A., Sims, R. E.: Effect of lactacidosis on pyridine nucleotide stability during ischemia in mouse. J. Neurochem. 49: 846-851 (1987)). The distal part of the middle […] artery (MCA) was occluded with electric cauter. Test compounds were administered intraperitoneally 30 minutes after surgery in the dose of 0.1-0.3-1.0-3.0-10.0 mg/kg). After 48 hours, mice were anesthetised by 120 mg/kg sodium pentobarbital intraperitoneally. The brains were perfused through the left ventricle with 2 ml of 4% 2,3,5-triphenyl-tetrazolium-chloride (TTC) solution. After one hour, the brains was removed and placed into ice-cool saline for one to two minutes. Subsequently the brains were placed into 8% aqueous formaldehyde solution. After 24 hours, the area of white lesions was determined by a computerized image analysis software. The statistical evaluation was performed by variance analysis followed by Duncan-test.
# [2] = target: T3, cloned human 5-HT6 receptors (Homo sapiens, UniProt P50406); assay: receptor-binding assay, 5-HT6 (3H-LSD, HEK 293 cells); settings: for pKi: 3H-LSD 2.7 nM, HEK 293 cells
# T3 construct: expressed in transfected cells
# T3 sequence (P50406 whole entry): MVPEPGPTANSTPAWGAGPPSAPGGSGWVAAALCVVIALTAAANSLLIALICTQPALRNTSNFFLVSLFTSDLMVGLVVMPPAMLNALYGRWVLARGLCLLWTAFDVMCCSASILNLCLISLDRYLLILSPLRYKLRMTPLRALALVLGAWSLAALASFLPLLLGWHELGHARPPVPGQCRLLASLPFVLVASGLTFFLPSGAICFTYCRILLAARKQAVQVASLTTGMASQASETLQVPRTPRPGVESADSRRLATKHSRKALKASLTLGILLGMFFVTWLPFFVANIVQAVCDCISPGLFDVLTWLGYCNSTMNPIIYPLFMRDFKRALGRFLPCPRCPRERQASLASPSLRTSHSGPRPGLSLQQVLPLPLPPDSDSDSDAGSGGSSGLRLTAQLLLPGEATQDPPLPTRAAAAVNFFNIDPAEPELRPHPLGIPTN
# Method: as §1, §2
Compound,affinity to the central D4 receptors (in words) [1],pKi [1],"Porsolt-test (model for antidepressant effect), MED (male DBA mice)",affinity to the central 5-HT2A receptors (in words) (5-HT2A receptors),pKi (5-HT2A receptors),"Vogel-test (model for anxiolytic effect), MED (male Wistar rats)","Vogel-test (model for anxiolytic effect), MED (male Wistar rats; listed as (−)-5,7-dichloro-3-{4-[4-(4-chlorophenyl)-piperazin-1-yl]butyl}-3-ethyl-1,3-dihy)","Permanent cerebral ischemia model (model for neuroprotective effect), MED (male NMRI mice)",affinity towards central 5-HT6 receptors (in words) [2],melting point,antidepressant activity in Porsolt's test (in words) (male DBA mice; mice),pKi [2]
"CCC1(CCCCN2CCN(c3ccc(Cl)cc3)CC2)C(=O)Nc2c(Cl)cc(Cl)cc21 (single isomer, unassigned; (-)) [(−)-enantiomer of the Formula (I), (−)-5,7-dichloro-3-{4-[4-(4-chlorophenyl)-piperazin-1-yl]-butyl}-3-ethyl-1,3-dihydro-2H-indol-2-one]",significant affinity,7.89,No effect,affinity greater by several orders of magnitude,7.38,No effect,did not show any anxiolytic effect,3 mg/kg and 3.0 mg/kg,not bound,139 to 140 °C,–,–
"CCC1(CCCCN2CCN(c3ccc(Cl)cc3)CC2)C(=O)Nc2c(Cl)cc(Cl)cc21 (racemic) [Compound of the Formula (II), 5,7-dichloro-3-{4-[4-(4-chlorophenyl)-piperazin-1-yl]butyl}-3-ethyl-1,3-dihydro-2H-indol-2-one]",did not show any significant binding,< 7.00,3 mg/kg,affinity greater by several orders of magnitude,7.30,5 mg/kg,–,0.1 mg/kg,significant affinity,152 to 154 °C,"significant, dose-dependent antidepressant activity",8.05
"CCC1(CCCCN2CCN(c3ccc(Cl)cc3)CC2)C(=O)Nc2c(Cl)cc(Cl)cc21 (single isomer, unassigned; (+)) [(+)-enantiomer of the Formula (I), (+)-5,7-dichloro-3-{4-[4-(4-chlorophenyl)-piperazin-1-yl]butyl}-3-ethyl-1,3-dihydro-2H-indol-2-one]",–,7.46,No effect,–,< 6.70,10 mg/kg,–,ineffective; also recorded: No effect,significant affinity,139 to 141 °C,–,7.96
